This passage reports melting point results from patent US6395905B1, “Tetrahydroindazole derivatives as ligands for GABA-A α 5 receptors” (Merck Sharp & Dohme Ltd., priority 1999, dated 2002).

In general, melting point refers to the temperature, or range, at which the solid turns liquid.

For `NCCc1ccc(NC(=O)c2n[nH]c3c2C(=O)CCC3)cc1` [Example 5, 4-Oxo-4,5,6,7-tetrahydro-1H-indazole-3-carboxylic acid 4-(2-aminoethyl)phenylamide], the melting point is 250 °C (dec.).

For `O=C(Nc1ccccc1)c1n[nH]c2c1C(=O)CCC2` [Example 1, 4-Oxo-4,5,6,7-tetrahydro-1H-indazole-3-carboxylic acid phenylamide], the melting point is 244 °C (dec.). For `O=C(Nc1ccccn1)c1n[nH]c2c1C(=O)CCC2` [Example 3, 4-Oxo-4,5,6,7-tetrahydro-1H-indazole-3-carboxylic acid pyridin-2-ylamide] the value was 250 °C (dec.).
